In series [1] the test system is 3T3-L1 preadipocytes and mature adipocytes. The experiment in a line: MTS test for cell viability. In kind it is cell-based, mouse. The method, then:
(§1) Preparation of preadipocytes. 3T3-L1 mouse embryo fibroblasts are obtained and cultured. Cells are cultured at 37° C. in a humidified 5% CO2 atmosphere and grown in Dulbecco's modified Eagle's medium (DMEM) with 10% bovine calf serum. Confluency is induced for 2 days (Days −1 and 0) and preadipocytes are cultured in DMEM with 10% fetal bovine serum (FBS/DMEM) medium, supplemented with 167 nM insulin, […] isobutylmethylxanthine, and 1 μM dexamethasone for 2 days (Days 1 and 2).
Preparation (induction) of mature adipocytes from preadipocytes. Preadipocytes prepared as above are then maintained in a culture medium with 167 nM insulin supplement for another 2 days (Days 3 and 4), followed by culturing with 10% FBS/DMEM medium for an additional 4 days (Days 5-8), at which time >90% of the cells are expected to have differentiated and matured into adipocytes with accumulated fat droplets. All media contains 100 U/mL penicillin, 100 μg/mL streptomycin, and 292 μg of L-glutamine/mL. […]
Test for cell viability. […] The plate is analyzed by spectrometry at a wavelength of 490 nm, which is an absorbance peak for formazan. The quantity of formazan as measured by absorbance at 490 nm is a directly proportional to the number of viable cells.
In general terms: Tetrazolium assays rely on reduction of a dye to a coloured formazan, in cell work by metabolically active cells.

Series [2] has as its system mature adipocytes (from 3T3-L1). The experiment in a line: Laser scanning cytometry (annexin V/PI) test for apoptosis. The note with it: 24 hours. It counts as cell-based, mouse. The method, then:
as §1
(§2) Preparation (induction) of mature adipocytes from preadipocytes. Preadipocytes prepared as above are then maintained in a culture medium with 167 nM insulin supplement for another 2 days (Days 3 and 4), followed by culturing with 10% FBS/DMEM medium for an additional 4 days (Days 5-8), at which time >90% of the cells are expected to have differentiated and matured into adipocytes with accumulated fat droplets. All media contains 100 U/mL penicillin, 100 μg/mL streptomycin, and 292 μg of L-glutamine/mL.
All experiments, except where otherwise indicated, are performed with bimatoprost added to the culture medium for a final concentration of 0%, 0.003%, 0.03%, or 0.3% for a duration of 3, 6, 12, or 24 hours [with 1:1000 dimethyl sulfoxide (DMSO)]. […]
Test for apoptosis (1). […] Apoptotic cells fluoresce and are detected by LSC, since AV binds specifically to phosphatidylserine in the disrupted plasma membrane. […]

Series [3] relates to 3T3-L1 preadipocytes and mature adipocytes. Description: TUNEL imaging test for apoptosis. In kind it is cell-based, mouse. How it is done:
as §1, §2
Test for apoptosis (2). Terminal Deoxynucleotidyl Transferase dUTP Nick-End Labeling (TUNEL) Imaging is one of the most common assays for apoptosis. […] Apoptosis manifests as fluorescence upon microscopic examination, which reflects the antibody-labeled BrdU incorporated at the cleaved portions of DNA.

The test system of the next series is 3T3-L1 preadipocytes. Description: Oil-Red-O test for differentiation of preadipocytes into mature adipocytes. It counts as cell-based, mouse. How it is done:
as §1, §2
Test for differentiation of preadipocytes into mature adipocytes. Oil-Red-O, a specific lipid stain, is used to test the effect of bimatoprost on adipogenesis. […] For each dish, multiple images are taken and analyzed for average lipid droplet size, percentage lipid area, and total droplet number with software. […]

Series [4] has as its system laboratory rodents (hairless rats or nude mice). The experiment in a line: In vivo rodent study, daily topical ointment on abdominal skin. The note with it: daily topical ointment 0.003-0.3%, six months. How it is done: Animal preparation. Genetically uniform laboratory rodents (for example, hairless rats or nude mice) are used. They are adult laboratory rodents similar in size at the commencement of the study (approximately postnatal week 15 for rats). Multiple animals are tested. Animals randomized to bimatoprost are housed separately from control animals but are kept in the same room under identical environmental conditions. All animals are fed a standard diet, appropriate for the species, ad libidum.
Method. In all cases the vehicle is a compatible ointment, such as petrolatum, with a final bimatoprost concentration of 0%, 0.003%, 0.03%, or 0.3%. A fixed amount of ointment, for example 1 gram, is applied daily in a thin film over a uniform surface area of the abdominal skin of each animal. Each animal is randomized to a daily application of a dose of topical bimatoprost or vehicle alone. On a weekly basis, total body mass of each animal is determined on a scale. Total body fat is estimated by any of the several methods established for this purpose, for example, water displacement (Dahms et al. (1982) J NUTR. 112: 398-400), isotopic dilution (Culebras et al. (1977) J. PHYSIOL. 232: R60-65), Total Body Electrical Conductance (TOBEC) (Baer et al. (1993) PHYSIOL. BEHAV. 53: 1195-99), Dual-Energy X-Ray Absorptiometry (DEXA) (Bertin et al. (1998) J NUTRITION 128: 1550-54), or Nuclear Magnetic Resonance (NMR) (Kunnecke et al. (2004) OBES RES. 12: 1604-151. Animals are maintained and monitored in this fashion for six months, at which point they are sacrificed.
Analysis and Results. Abdominal fat pads of the sacrificed animals are excised and measured directly for mass and volume. Direct carcass analysis with chemical extraction may be further performed (Frisch et al. (1977) PNAS 74: 379-383). All results are normalized with reference to baseline values and then compared between bimatoprost and control groups.

In another series the test system is human subjects. Description: In vivo human randomized double-blind study, topical ointment over triceps. The following applies: daily petrolatum ointment 0.003-0.3%, 6 months. From the text: Multiple human subjects (both male and female), for example, with body mass indices of 30 or more but otherwise healthy, are entered into a randomized double-blind study. Either the left or the right arm is randomized to receive topical bimatoprost; the other arm receives vehicle only. Bimatoprost is supplied in a petrolatum-based ointment (the vehicle) at a final concentration of 0%, 0.003%, 0.03% or 0.3%. Ointment containers are unlabeled as to the presence or concentration of bimatoprost. Each day, subjects apply a thin film of ointment to the skin over the respective triceps while wearing new, clean surgical gloves. Subjects are instructed to refrain from washing the treated area for at least 8 hours and are instructed to refrain from wearing tight clothing or occlusive dressings that will come into contact with the treated area. Body fat calipers are used to measure fat in the triceps region bilaterally on a weekly basis. The study continues for 6 months. […] As a result, this contemplated outcome will show, in vivo, that compounds according to the present invention, including bimatoprost, can reduce fat.

For a further series, the system named is human patients. Description: Clinical application examples (Examples 4-8), local bimatoprost to reduce fat deposits. The note with it: for fat pad between shoulders / fatty deposits on cheeks: daily ointment to face and between shoulders. It counts as in vivo. From the text: In light of the foregoing description, the specific non-limiting examples presented below are for illustrative purposes and not intended to limit the scope of the invention in any way. In Examples 4-8, various modes of non-systemic administration of a cyclopentane heptanoic acid, 2-arylalkyl or cycloalkyl compound or derivative thereof can be used, for example, by topical application (ointment, cream, or transdermal patch), subcutaneous injection, intramuscular injection, or intralesional injection, any of which may involve a controlled (or sustained) release formulation or depot. In addition to medical therapy, the person's physician recommends a regimen of diet and exercise. After six months the person is unable to lose weight. The physician prescribes daily topical application of a bimatoprost ointment to the abdomen as treatment for central obesity. […] The person's physician prescribes a daily application of a bimatoprost ointment to the face and between the shoulders as treatment for the fat deposits. […] The person's physician prescribes a daily application of a bimatoprost ointment to the face and between the shoulders as treatment for the fat deposits. […] The plastic surgeon prescribes a daily application of a bimatoprost ointment to the hips and thighs as treatment for the fat deposits. […] The doctor prescribes an ophthalmic preparation of bimatoprost daily to both eyes as a treatment for the proptosis and exposure symptoms.

A further series deals with human eye. The note with it: eyedrops, glaucoma, cited from earlier work.
[5] abbreviates: preadipocytes and/or mature adipocytes.
Where [6] appears, read: Example 4, obese person, daily ointment to abdomen.
The mark [7] stands for this setting: Example 5, Cushing syndrome secondary to prednisone.
Where [8] appears, read: Example 6, HIV-related lipodystrophy.
Setting [9] is: Example 8, Grave's disease orbitopathy, ophthalmic preparation daily to both eyes.

Entries after “also recorded” stand apart in the source; their conditions may differ.

As to `CCNC(=O)CCC/C=C\C[C@@H]1[C@@H](/C=C/[C@@H](O)CCc2ccccc2)[C@H](O)C[C@@H]1O` [bimatoprost, cyclopentane N-ethyl heptenamide-5-cis-2-(3α-hydroxy-5-phenyl-1-trans-pentenyl)-3,5-dihydroxy, [1α, 2β, 3α, 5α]], the “absorbance at 490 nm on MTS testing, treated cells compared to control cells” value in series [1] (bimatoprost 0.003%, 0.03% or 0.3%, up to 24 hours, vs DMSO control) is given as “lower absorbance at 490 nm”. The “rates of viability compared to control samples” value in series [1] (setting [5]) is recorded as “lower rates of viability”. The “AV-labeled and/or PI-labeled cells on laser scanning cytometry compared to control samples” value in series [2] is reported as “more AV-labeled and/or PI-labeled (apoptotic or dead) cells”. The “BrdU-antibody-labeled cells on TUNEL imaging compared to control samples” value in series [3] (preadipocytes and mature adipocytes, 24 hours) is “more BrdU-antibody-labeled (fluorescent) cells”. For the same compound, the “rates of apoptosis compared to control samples” value in series [3] (setting [5]) was “higher rates of apoptosis”. Besides, in the series with 3T3-L1 preadipocytes (bimatoprost 0.003%, 0.03%, and 0.3% μM added with induction medium), the “lipid droplets on Oil-Red-O staining compared to control samples” value is “smaller and fewer lipid droplets”. In addition, the “rates of differentiation into mature adipocytes compared to control samples” value with 3T3-L1 preadipocytes (preadipocytes) is listed as “lower rates of differentiation into mature adipocytes”. Besides, in series [4], the “subcutaneous (abdominal) fat mass compared to control animals” value was “lower subcutaneous (abdominal) fat mass”, the “total body fat mass compared to control animals” value was “lower total body fat mass” and the “total body mass compared to control animals” value is given as “lower total body mass”. The “fat in treated body area (triceps, calipers) compared to vehicle-treated area” value with human subjects is “lower fat”. Further, in the series on human patients (setting [6]), the BMI entry is given as “BMI is reduced” and the abdominal fat deposits entry is on record as “abdominal fat deposits are reduced”. For the same compound, in the series with human patients (setting [7]), the “fat pad between shoulders” value was “fat pad between their shoulders is reduced” and the “fatty deposits on cheeks” value is reported as “fatty deposits on the person's cheeks are reduced”. In the series on human patients (setting [8]), the “fat pad between shoulders” value was “fat pad between their shoulders is reduced” and the “fatty deposits on cheeks” value is “fatty deposits on the person's cheeks are reduced”. Besides, the “fatty deposits on hips and/or thighs” value in the series on human patients (Example 7, daily ointment to hips and thighs) is given as “fatty deposits on the person's hips and/or thighs are reduced”. Moreover, in the series on human patients (setting [9]), the “condition (proptosis and exposure symptoms)” value is recorded as “their condition improves”; the orbital fat result is reported as “orbital fat is reduced”. In addition, the unwanted side-effects entry in the series on human eye (Peplinski et al. (2004)) was “periocular pigmentary changes involving the eyelid; also recorded: deepening of the lid sulcus”. Besides, the intraocular pressure entry in the series with human eye is recorded as “decrease intraocular pressure”.

(Values after patent publication US20210308143A1, “COMPOSITIONS AND METHODS FOR REDUCING BODY FAT” (Topokine Therapeutics, Inc., priority 2006, published 2021).)
